Assay results from article PMC9178925 (Biochemical pharmacology, 2022).
Several values for one entry are separate records, joined by “and”; a condition that tells them apart may be missing. Equal entries are not always repeated.

How the values were obtained:
[1] = target: α1β1γ2S GABAAR (Rattus norvegicus, UniProt P15431+P62813); assay type: cell-based; details: 100 μM (+)-catharanthine, % over control EC5 GABA; mean ± SEM
[2] = target: α1β2γ2S GABAAR (Rattus norvegicus, UniProt P62813+P63138); assay type: cell-based, rat (β2 rat or human)
[3] = target: α1β3γ2S GABAAR (Rattus norvegicus, UniProt P62813+P63079); assay type: cell-based
[4] = target: α2β1γ2S GABAAR (UniProt P15431+P47869); assay type: cell-based, human α2, rat β1 and γ2S; details: 100 μM (+)-catharanthine, % over control EC5 GABA; mean ± SEM
[5] = tested on: α2β3γ2S GABAAR; experiment: Two-electrode voltage clamp, potentiation of EC5 GABA currents in oocytes; assay type: cell-based, human α2, rat β and γ2S
[6] = target: α2β3γ2S GABAAR (UniProt P47869+P63079); experiment: as above; assay type: cell-based, human α2, rat β3 and γ2S
[7] = target: α1β3(M286C)γ2S GABAAR (Rattus norvegicus, UniProt P62813+P63079, M311C); experiment: Two-electrode voltage clamp, potentiation of low GABA currents in oocytes; assay type: cell-based; details: 100 μM (+)-catharanthine, ~EC5 GABA, n = 5 oocytes
[8] = target: α1β2(N265S)γ2S GABAAR (Rattus norvegicus, UniProt P62813+P63138, N289S); experiment: as above; assay type: cell-based, rat (β2 rat or human); details: 100 μM (+)-catharanthine, ~EC5 GABA
[9] = target: T1, α1β2γ2L GABAAR (Rattus norvegicus, UniProt P62813+P63138); experiment: Two-electrode voltage clamp, concentration-response and mechanistic; assay type: cell-based, rat (β2 rat or human)
[10] = target: α1β2(N265S)γ2L GABAAR (Rattus norvegicus, UniProt P62813+P63138, N289S); assay type: cell-based, rat (β2 rat or human); details: β2(N265S)
[11] = target: α1β2(R269A)γ2L GABAAR (Rattus norvegicus, UniProt P62813+P63138, R293A); assay type: cell-based, rat (β2 rat or human); details: β2(R269A)
[12] = target: α1β2(K279A)γ2L GABAAR (Rattus norvegicus, UniProt P62813+P63138, K303A); assay type: cell-based, rat (β2 rat or human); details: β2(K279A)
[13] = target: α1β2(D282A)γ2L GABAAR (Rattus norvegicus, UniProt P62813+P63138, D306A); assay type: cell-based, rat (β2 rat or human); details: β2(D282A)
[14] = target: α1β2(K279A+D282A)γ2L GABAAR (Rattus norvegicus, UniProt P62813+P63138, D306A/K303A); assay type: cell-based, rat (β2 rat or human); details: β2(K279A+D282A)
[15] = target: α1(Q241L)β2γ2L GABAAR (Rattus norvegicus, UniProt P62813+P63138, Q268L); experiment: Two-electrode voltage clamp, potentiation of low GABA currents in oocytes; assay type: cell-based, rat (β2 rat or human)
[16] = tested on: β2/3-containing GABAARs vs β1-containing GABAARs; experiment: GABAAR subtype selectivity of potentiation; assay type: cell-based; details: low, subsaturating GABA
[17] = target: T1, α1β2γ2L GABAAR; experiment: Functional competition assay; details: for potentiation of GABA-activated receptors: n = 5 oocytes
[18] = 100 μM (+)-catharanthine, % over control EC5 GABA, mean ± SEM
[19] = read-out: KCath (estimated affinity of (+)-catharanthine for the resting receptor), low GABA (PA ~0.2), Eq. 1, NCath = 2, mean ± SEM, 5 oocytes
[20] = calculated from cCath, NCath = 2
[21] = low GABA (PA ~0.2), Eq. 1, NCath = 2
[22] = absence of GABA, Hill equation fit
[23] = 1 μM R(+)-etomidate + 10 μM (+)-catharanthine
[24] = GABA + 3 μM loreclezole + 30 μM (+)-catharanthine

CCC1=C[C@@H]2CN3CCc4c([nH]c5ccccc45)[C@@](C(=O)OC)(C2)[C@@H]13 [(+)-catharanthine, (+)-3,4-didehydrocoronaridine]
(+)-Catharanthine maximal potentiation (%) [1]: 269 ± 42 (4) % | (+)-Catharanthine maximal potentiation (%) [2, 18]: 739 ± 110 (11) % | potentiation of the response to low GABA ([2]; 100 μM (+)-catharanthine, ~EC5 GABA): 1099 ± 163% | (+)-Catharanthine relative potentiation (αxβ2/3γ2S)/(αxβ1γ2S) ([2]; α1β2γ2S vs α1β1γ2S, 100 μM): 2.7 | (+)-Catharanthine maximal potentiation (%) [3, 18]: 646 ± 64 (10) % | potentiation of the response to low GABA ([3]; 100 μM (+)-catharanthine, ~EC5 GABA, n = 6 oocytes): 667 ± 111% | (+)-Catharanthine relative potentiation (αxβ2/3γ2S)/(αxβ1γ2S) ([3]; α1β3γ2S vs α1β1γ2S, 100 μM): 2.4 | (+)-Catharanthine maximal potentiation (%) [4]: 211 ± 26 (5) % | (+)-Catharanthine maximal potentiation (%) ([5]; 100 μM (+)-catharanthine, % over control EC5 GABA, first line printed α2β3γ2S): 691 ± 65 (5) % | (+)-Catharanthine relative potentiation (αxβ2/3γ2S)/(αxβ1γ2S) ([5]; first line printed α2β3γ2S vs α2β1γ2S, 100 μM): 3.3 | (+)-Catharanthine maximal potentiation (%) ([6]; 100 μM (+)-catharanthine, % over control EC5 GABA, second line printed α2β3γ2S): 728 ± 120 (4) % | (+)-Catharanthine relative potentiation (αxβ2/3γ2S)/(αxβ1γ2S) ([6]; second line printed α2β3γ2S vs α2β1γ2S, 100 μM): 3.5 | potentiation of the response to low GABA [7]: 651 ± 115% | potentiation of the response to low GABA [8]: 224 ± 13% | maximal efficacy [(PAmax/PAmin)-1 × 100] / maximum potentiation ([9]; 2 μM GABA, Hill equation fit, % of control): 341% | potentiation of GABA-evoked currents ([9]; 30 μM (+)-catharanthine, 2 μM GABA, n = 6 oocytes): 372 ± 72% | EC50 ([9]; read-out: EC50 for potentiation, wild-type, 2 μM GABA, Hill equation fit): 13.5 ± 1.8 µM | Kd ([9]; read-out: KCath (estimated affinity of (+)-catharanthine for the resting receptor), wild-type, 2 μM GABA background, fit to Eq. 1, NCath constrained to 2, mean ± SEM, 5 oocytes): 29.4 ± 6 µM | cCath (ratio of the affinities for the active and resting states) ([9]; wild-type, 2 μM GABA background, fit to Eq. 1, NCath constrained to 2): 0.231 and 0.231±0.023 | nH (Hill coefficient) ([9]; wild-type, 2 μM GABA, Hill equation fit): 1.66 and 1.66±0.33 | ΔG (free energy change to stabilize the active state) ([9]; wild-type, calculated from cCath as NCathRTln(cCath), NCath = 2): -1.76 kcal/mol and -1.76 ± 0.12 kcal/mol | Kd [10, 19]: 23.9 ± 2.5 µM | ΔG [10, 20]: -1.12 ± 0.07 kcal/mol | cCath (ratio of the affinities for the active and resting states) [10, 21]: 0.390±0.021 | EC50 ([10]; low GABA, Hill equation fit): 17.7 ± 1.4 µM | nH ([10]; low GABA, Hill equation fit): 1.53±0.13 | Kd [11, 19]: 18.8 ± 3.3 µM | ΔG [11, 20]: -1.53 ± 0.11 kcal/mol | cCath (ratio of the affinities for the active and resting states) [11, 21]: 0.279±0.022 | EC50 ([11]; low GABA, Hill equation fit): 9.3 ± 1.2 µM | nH ([11]; low GABA, Hill equation fit): 1.29±0.10 | Kd ([12]; read-out: KCath (estimated affinity of (+)-catharanthine for the resting receptor), direct activation in the absence of GABA (PA,constitutive 0.22), Eq. 1, NCath = 2, 5 oocytes): 17.8 ± 1.6 µM | cCath (ratio of the affinities for the active and resting states) ([12]; absence of GABA, Eq. 1, NCath = 2): 0.421±0.034 | EC50 [12, 22]: 13.6 ± 2 µM | nH [12, 22]: 1.08±0.11 | ΔG [12, 20]: -1.04 ± 0.10 kcal/mol | Kd [13, 19]: 7.1 ± 2.8 µM | ΔG [13, 20]: -0.55 ± 0.07 kcal/mol | cCath (ratio of the affinities for the active and resting states) [13, 21]: 0.630±0.039 | EC50 ([13]; low GABA, Hill equation fit): 7.7 ± 1.6 µM | nH ([13]; low GABA, Hill equation fit): 1.88±0.39 | ΔG [14, 20]: −0.19 ± 0.01 kcal/mol and −0.19±0.01nd kcal/mol | cCath (ratio of the affinities for the active and resting states) ([14]; pooled data, best-fit ± standard error of the fit): 0.848±0.010nd | EC50 ([14]; pooled data, Hill equation fit): 15.8 ± 5.9 µM | nH ([14]; pooled data, Hill equation fit): 1.30 | potentiation of GABA-evoked currents ([15]; 30 μM (+)-catharanthine, 30 μM GABA, n = 6 oocytes): 231 ± 33% | efficacy of potentiation at β2/3-containing relative to β1-containing GABAARs [16]: 2.4–3.5 times | predicted PA, model with overlapping sites (Eq. 2) [17, 23]: 0.024 ± 0.006 | predicted PA, model with unique non-overlapping sites (Eq. 1) [17, 23]: 0.115 ± 0.031 | PA of peak response, observed ([17]; 10 μM (+)-catharanthine coapplied with 1 μM R(+)-etomidate, 7 oocytes): 0.086 ± 0.024 | potentiation of GABA-activated receptors ([17]; 10 μM (+)-catharanthine, 0.05 μM GABA): 1600 ± 400% | potentiation of the peak response elicited by R(+)-etomidate ([17]; 10 μM (+)-catharanthine, 1 μM R(+)-etomidate, n = 7 oocytes): 160 ± 24% | potentiation of the peak response to pregnanolone ([17]; 10 μM (+)-catharanthine, 2 μM pregnanolone, five oocytes): 2200 ± 400% | potentiation of GABA-activated receptors ([17]; 10 μM (+)-catharanthine, 1–2 μM GABA): 353 ± 68% | PA of the peak response, observed ([17]; 0.2–0.5 μM GABA + 3 μM loreclezole + 30 μM (+)-catharanthine): 0.21 ± 0.13 | PA of the peak response ([17]; 0.2–0.5 μM GABA + 30 μM (+)-catharanthine): 0.16 ± 0.11 | predicted PA, distinct site model [17, 24]: 0.62 ± 0.17 | predicted PA, same site model [17, 24]: 0.19 ± 0.11

NCCCC(=O)O [GABA, γ-aminobutyric acid, reference compound]
PA (probability of being in the active state) of peak response ([9]; 2 μM GABA alone, normalized to 1 mM GABA + 50 μM propofol): 0.18 and 0.17 ± 0.02 and 0.15 ± 0.02 | PA of peak response ([9]; 10 μM GABA alone, n = 6 oocytes): 0.26 ± 0.03 | PA (probability of being in the active state) of peak response ([15]; 30 μM GABA alone): 0.19 ± 0.05 | PA of peak response ([17]; 0.05 μM GABA alone): 0.004 ± 0.001 | PA of peak response ([17]; 0.75 μM GABA alone): 0.051 ± 0.018 | mean PA of the peak response ([17]; 0.2–0.5 μM GABA alone, n = 7 oocytes): 0.009 ± 0.008 | PA of peak response ([17]; 1–2 μM GABA alone): 0.030 ± 0.007
